Measurements from patent US7582655B2, “Antineoplastic compounds” (University of Saskatchewan, priority 2005, dated 2009).
pIC50: −log10 of the molar value. Where two headings read alike, the source gives them in different places.

Assays:
HCT 116 = experiment: Human tumour cell line panel, colon cancer HCT 116; format: cell-based
Experimental: (§1) In addition, both 5-fluorouracil and melphalan were evaluated towards 57 cell lines. […] MG MID is the average of the potencies of the compound to approximately 50 neoplastic cell lines.

human pulp cells (HPC) = experiment: in vitro
Experimental: (§2) In addition, the compounds were evaluated against human squamous cell carcinomas (HSC-2 and HSC-4) and human promyelocytic leukemia neoplasms (HL-60) and compared with normal cells, i.e. human gingival fibroblasts (HGF), human pulp cells (HPC) and human periodontal ligament fibroblasts (HPLF).
(§3) MTT stands for 3-(4,5-dimethylthiazol-2-yl)-2,5-diphenyltetrazolium bromide). The cells were incubated with varying concentrations of the compounds along with untreated cells for 24 h and the absorbance at 540 nm measured. In the case of the HL-60 assay, the trypan blue exclusion method was followed and cell viability was determined using a haemocytometer. The CC50 values were obtained from dose-response curves (Sakagami, H.; Satoh, K.; Ohata, H.; Takahashi, H.; Yoshida, H.; Iida, M.; Kuribayashi, N.; Sakagami, T.; Momose, K.; Takeda, M. Anticancer Res. 1996, 16, 2635-2644). The general methods used in culturing the cells employed in these cytotoxicity experiments have been described previously (Kawase, M.; Sakagami, H.; Motohashi, N.; Hauer, H.; Chatterjee, S. S.; Spengler, G.; Vigyikanne, A. V.; Molnár, A.; Molnár, J. In Vivo 2005, 19, 705-712; and Takeuchi, R.; Hoshijima, H.; Onuki, N.; Nagasaka, H.; Chowdhury, S. A.; Kawase, M.; Sakagami, H. Anticancer Res. 2005, 25, 4037-4042). In brief, the malignant cells were obtained from Professor Nagumo, Showa University, Japan. The HGF, HPC and HPLF cells were prepared from human periodontal tissue after obtaining informed consent according to the guidelines of Meikai University Ethics Committee, Japan (No. 0206). Since normal cells have a short lifespan, cells at the 3-7 population doubling time were used. With the exception of the HL-60 neoplasm, the cells were cultured in DMEM containing heat-inactivated FBS (10%) at 37° C. in a humidified carbon dioxide atmosphere and subcultured by trypsinization. The HL-60 cells were cultured in a similar fashion except that RPMI 1640 media was employed.

HCC 2998 = experiment: Human tumour cell line panel, colon cancer HCC 2998; format: cell-based
Experimental: as §1

[1] = system: human gingival fibroblasts (HGF); experiment: in vitro
Experimental: as §2, §3

HCT 15 = experiment: Human tumour cell line panel, colon cancer HCT 15; format: cell-based; details: read-out: Colon cancer cells, IC50(μM) HCT 15
Experimental: as §1

[2] = system: human squamous cell carcinomas HSC-4; experiment: Cytotoxicity CC50, MTT assay, HSC-4
Experimental: as §2, §3

human tumour cell lines = experiment: Panel of human tumour cell lines, all cell lines (mean graph midpoint); format: cell-based; details: for pIC50: mean graph midpoint, average of 49 (38-59) human tumour cell lines, 48 h incubation, read-out: All cell lines IC50
Experimental: A number of compounds of the invention were further assessed against numerous human malignant cell lines. An average of 49 cell lines from nine different neoplastic diseases, namely leukemia, melanoma, non-small cell lung, colon, central nervous system, ovarian, renal, prostate, and breast cancers were employed.
as §1

SW 620 = experiment: Human tumour cell line panel, colon cancer SW 620; format: cell-based
Experimental: as §1

HL 60 = experiment: Human tumour cell line panel, leukemic HL 60; format: cell-based
Experimental: as §1

KM 12 = experiment: Human tumour cell line panel, colon cancer KM 12; format: cell-based
Experimental: as §1

RPMI 8226 = experiment: Human tumour cell line panel, leukemic RPMI 8226; format: cell-based
Experimental: as §1

[3] = system: human periodontal ligament fibroblasts (HPLF); experiment: in vitro
Experimental: as §2, §3

[4] = system: human squamous cell carcinomas HSC-2; experiment: Cytotoxicity CC50, MTT assay, HSC-2
Experimental: as §2, §3

K 562 = experiment: Human tumour cell line panel, leukemic K 562; format: cell-based
Experimental: as §1

[5] = system: human promyelocytic leukemia HL-60; experiment: Cytotoxicity CC50, trypan blue exclusion, HL-60
Experimental: as §2, §3

[6] = system: murine L-5178 lymphoma cells transfected with the human MDR1 gene; experiment: MDR reversal, rhodamine 123 fluorescence activity ratio; details: FAR >1 indicates MDR reversal
Experimental: A solution of the test compound (2 mg/ml, 10 μl) in dimethylsulfoxide was added to aliquots of the cell suspension and incubated at room temperature for 10 minutes. […] The cells were washed twice and resuspended in PBS (pH 7.4) after which the fluorescence was measured using a Beckton Dickinson FACScan instrument. The fluorescence of the cells was measured in treated MDR cells (F1), untreated MDR cells (F2), treated parental cells (F3) […] were obtained from the following equation, viz (F1/F2)/(F3/F4).

COLO 205 = experiment: Human tumour cell line panel, colon cancer COLO 205; format: cell-based
Experimental: as §1

[7] = system: HSC-2, HSC-4 and HL-60 malignant cells; experiment: Average CC50 for malignant cells
Experimental: as §2, §3

SR = experiment: Human tumour cell line panel, leukemic SR; format: cell-based
Experimental: as §1

[8] = 48 h; read-out: Colon cancer cells, IC50(μM) HCT 116
[9] = 48 h; read-out: Colon cancer cells, IC50(μM) HCC 2998
[10] = 48 h; read-out: Colon cancer cells, IC50(μM) SW 620
[11] = 48 h; read-out: Leukemic cells, IC50(μM) HL 60
[12] = 48 h; read-out: Colon cancer cells, IC50(μM) KM 12
[13] = 48 h; read-out: Leukemic cells, IC50(μM) RPMI 8226
[14] = 48 h; read-out: Leukemic cells, IC50(μM) K 562
[15] = 48 h; read-out: Colon cancer cells, IC50(μM) COLO 205
[16] = 48 h; read-out: Leukemic cells, IC50(μM) SR
[17] = read-out: CC50(μM) HPC, normal cells, 24 h, MTT
[18] = read-out: CC50(μM) HGF, normal cells, 24 h, MTT
[19] = read-out: CC50(μM) HSC-4, 24 h, MTT, average of two determinations
[20] = read-out: Colon cancer cells, IC50(μM) KM 12
[21] = average CC50 for HSC-2, HSC-4 and HL-60 malignant cells
[22] = read-out: CC50(μM) HPLF, normal cells, 24 h, MTT
[23] = read-out: CC50(μM) HSC-2, 24 h, MTT, average of two determinations
[24] = read-out: CC50(μM) HL-60, 24 h, trypan blue exclusion, average of two determinations

Row | Compound | IC50 (HCT 116; [8]) [µM] | IC50 (HCC 2998; [9]) [µM] | IC50 (HCT 15; 48 h) [µM] | pIC50 (human tumour cell lines) | IC50 (SW 620; [10]) [µM] | IC50 (HL 60; [11]) [µM] | IC50 (RPMI 8226; [13]) [µM] | IC50 (K 562; [14]) [µM] | IC50 (COLO 205; [15]) [µM] | IC50 (SR; [16]) [µM] | CC50 (human pulp cells (HPC); [17]) [µM] | CC50 [1, 18] [µM] | CC50 [2, 19] [µM] | IC50 (KM 12; [20]) [µM] | CC50(μM) ave [7, 21] [µM] | CC50 [3, 22] [µM] | CC50 [4, 23] [µM] | CC50 [5, 24] [µM] | other results
1 | Cl.O=C1C(=Cc2ccc(Cl)cc2)CN(C(=O)c2ccc(OCCN3CCOCC3)cc2)CC1=Cc1ccc(Cl)cc1 [Compound 6b, 3,5-bis(4-Chlorophenylmethylene)-1-[4-{2-(4-morpholinyl)ethoxy}phenylcarbonyl-4-piperidone hydrochloride] | 7.25 | < 0.005 | 2.19 | > 6.25 | 1.45 | 5.5 | 0.132 | 6.76 | – | – | – | – | – | – | – | – | – | – | CC50 (human pulp cells (HPC)): > 400 µM; CC50 [1]: 400 µM; CC50 [2]: 18 µM; IC50 (KM 12; [12]): 2.29 µM; CC50 [3]: 360 µM; CC50 [4]: 71 µM; CC50 [5]: 36 µM
2 | CC[N+](C)(CC)CCOc1ccc(C(=O)N2CC(=Cc3ccc(C)cc3)C(=O)C(=Cc3ccc(C)cc3)C2)cc1.[I-] [Compound 7d, 1-[4-(2-Diethylaminoethoxy)phenylcarbonyl]-3,5-bis(4-methylphenylmethylene)-4-piperidone methoiodide] | 14.1 | 6.17 | 9.33 | 5.11 | 10.5 | 11.8 | 1.26 | 1.35 | 8.91 | 22.9 | – | – | – | – | – | – | – | – | CC50 (human pulp cells (HPC)): 29 µM; CC50 [1]: 34 µM; CC50 [2]: 17 µM; FAR value 4 μg/ml ([6]; compound 4 μg/ml): 1.93; FAR value 40 μg/ml ([6]; compound 40 μg/ml): 114; IC50 (KM 12; [12]): 9.33 µM; CC50(μM) ave [7]: 17 µM; CC50 [3]: 8.3 µM; CC50 [4]: 17 µM; CC50 [5]: 16 µM
3 | 3,5-bis(4-Methyl phenylmethylene)-1-[4-{2-(4-morpholinyl)ethoxy}phenylcarbonyl]-4-piperidone hydrochloride hemihydrate [Compound 6d] | 2.45 | – | 0.832 | > 6.15 | 1.02 | 1.1 | 0.115 | 0.275 | 1.15 | 0.245 | 49 | 10 | 2 | 1.12 | 1.6 | 12 | 1.6 | 1.2 | –
4 | O=c1[nH]cc(F)c(=O)[nH]1 [5-Fluorouracil, 5-fluorouracil, reference compound] | – | – | – | < 4.53 | – | – | – | – | – | – | – | – | – | – | – | – | – | – | IC50 (HCT 116; Homo sapiens, HCT-116, 48 h; read-out: Colon cancer cells, IC50(μM) HCT 116): 2.04 µM; IC50 (HCC 2998; Homo sapiens, HCC 2998, 48 h; read-out: Colon cancer cells, IC50(μM) HCC 2998): 5.75 µM; IC50 (HCT 15; Homo sapiens, HCT-15, 48 h): 6.61 µM; S.I. (selectivity index) (human tumour cell lines; ratio of the IC50 figures for the least and most sensitive cell lines): >4365; IC50 (SW 620; Homo sapiens, SW-620, 48 h; read-out: Colon cancer cells, IC50(μM) SW 620): 18.6 µM; IC50 (HL 60; Homo sapiens, HL-60, 48 h; read-out: Leukemic cells, IC50(μM) HL 60): 85.1 µM; IC50 (COLO 205; Homo sapiens, COLO 205, 48 h; read-out: Colon cancer cells, IC50(μM) COLO 205): 3.39 µM; IC50 (KM 12; Homo sapiens, KM12, 48 h; read-out: Colon cancer cells, IC50(μM) KM 12): 7.94 µM; IC50 (RPMI 8226; Homo sapiens, RPMI-8226, 48 h; read-out: Leukemic cells, IC50(μM) RPMI 8226): 3.55 µM; IC50 (SR; Homo sapiens, SR, 48 h; read-out: Leukemic cells, IC50(μM) SR): 60.3 µM; IC50 (K 562; Homo sapiens, K562, 48 h; read-out: Leukemic cells, IC50(μM) K 562): 126 µM
5 | N[C@@H](Cc1ccc(N(CCCl)CCCl)cc1)C(=O)O [Melphalan, reference compound] | – | – | – | – | – | – | – | – | – | – | > 200 | > 200 | – | – | 40.7 | > 200 | – | – | IC50 (HCT 116; Homo sapiens, HCT-116, 48 h, read-out: Colon cancer cells, IC50(μM) HCT 116): 30.2 µM; IC50 (HCC 2998; Homo sapiens, HCC 2998, 48 h, read-out: Colon cancer cells, IC50(μM) HCC 2998): 41.7 µM; CC50 ([2]; Homo sapiens, HSC-4, 24 h, read-out: CC50(μM) HSC-4): 81 µM; IC50 (human tumour cell lines; Homo sapiens, 48 h, read-out: All cell lines IC50(μM)): 26.9 µM; IC50 (SW 620; Homo sapiens, SW-620, 48 h, read-out: Colon cancer cells, IC50(μM) SW 620): 38.9 µM; IC50 (HL 60; Homo sapiens, HL-60, 48 h, read-out: Leukemic cells, IC50(μM) HL 60): 2.04 µM; IC50 (COLO 205; Homo sapiens, COLO 205, 48 h, read-out: Colon cancer cells, IC50(μM) COLO 205): 66.1 µM; IC50 (KM 12; Homo sapiens, KM12, 48 h, read-out: Colon cancer cells, IC50(μM) KM 12): 43.7 µM; IC50 (RPMI 8226; Homo sapiens, RPMI-8226, 48 h, read-out: Leukemic cells, IC50(μM) RPMI 8226): 66.1 µM; IC50 (SR; Homo sapiens, SR, 48 h, read-out: Leukemic cells, IC50(μM) SR): 1.86 µM; CC50 ([4]; Homo sapiens, HSC-2, 24 h, read-out: CC50(μM) HSC-2): 35 µM; IC50 (K 562; Homo sapiens, K562, 48 h, read-out: Leukemic cells, IC50(μM) K 562): 43.7 µM; CC50 ([5]; Homo sapiens, HL-60, 24 h, read-out: CC50(μM) HL-60): 6 µM
6 | 3,5-bis(4-Chlorophenylmethylene)-1-[4-(2-dimethylaminoethoxy)phenyl-carbonyl]-4-piperidone hydrochloride hemihydrate [Compound 3b] | 6.03 | 0.263 | 0.295 | 5.72 | 0.209 | 1.41 | 0.098 | 0.331 | 1.7 | 0.126 | 11 | 23 | 1.8 | 1.74 | 1.9 | 4.3 | 2.3 | 1.7 | –
7 | 1-[4-(2-Dimethylaminoethoxy)phenylcarbonyl]-3,5-bis(4-methylphenyl-methylene)-4-piperidone hydrochloride hemihydrate [Compound 3d] | 1.38 | 0.229 | 0.912 | 5.94 | 0.562 | 1.32 | 0.224 | 1.82 | 1.02 | 0.479 | 7.2 | 7.9 | 2.1 | 0.776 | 1.5 | 3.4 | 1.4 | 0.85 | –
